Assay results reported in US20170304177A1, “USE OF ISOSORBIDE ESTER AND N-ACYLATED AMINO ACID DERIVATIVES AS ANTI-AGEING AGENT FOR THE HUMAN SKIN” (SOCIETE D'EXPLOITATION DE PRODUITS POUR LES INDUSTRIES …, priority 2014, published 2017).

Test system: Normal human fibroblasts
Experiment: In vitro migration of normal human fibroblasts (Oris migration plates, mitomycin C pretreatment, 40 h incubation, Calcein AM labelling)
Assay type: cell-based
Conditions: for (Dmigr) mean migration distance of the cells: 40 h, mean ± SD of quadruplicates; for [(Dmigr) − (Dmigr)control]/(Dmigr)control, percentage of migratory effect relative to the control: vs FCS culture control
Source text: The fibroblast migration test is a test commonly used in the cosmetics and pharmaceutical sector and is especially described in the international patent application published under the number WO 2010/056908 A1. It allows in vitro reproduction of the phenomenon of fibroblast migration; a decrease in the migratory capacities of the fibroblasts being reported as associated with aging of the skin (1) (4).
Normal human fibroblasts at the R5 passage were amplified in a T75 culture flask and then inoculated at 25 000 cells/well in specific culture plates. These plates are dedicated to migration (Oris™ from Platypus), integrating a central zone without initial deposition of cells (stoppers). After 96 hours of plate amplification and 2 hours before the treatment, all the wells were treated with mitomycin C (2 hours at 10 μg/ml), so as to stop the cell proliferation, and thus to observe only the migration phenomenon. The stoppers were removed, and the references, the products or standard medium for fibroblasts containing 2% fetal calf serum (FCS) were applied to the cells under 100 μl, and then incubated for 40 hours at 37° C. under 5% CO2. Each condition was performed in quadruplicate.
On conclusion of the incubation, the cells were labeled with Calcein AM (5 μM, 20 minutes at 37° C.), so as to visualize the viable cells by fluorescence (revelation of the cytoplasm). Photos were taken, after having inserted a black screen under the culture plates, so as to visualize only the zone where the cells were not deposited. Thus, only the cells which had migrated were photographed (×4 objective lens; with a ×0.7 reducer on the camera adapter). The mean migration distance of the cells (Dmigr) was measured with NIS-Elements-BR 3.0 (4 cells). The means and standard deviations of the distances were calculated on the quadruplicates. The percentages of migratory effect relative to the control, and also the statistics (Student test) were also calculated.

**Q.** What does the source list for Epidermal Growth Factor (EGF)?
**A.** (Dmigr) mean migration distance of the cells (EGF 10 ng/ml): 203 ± 20 μm; [(Dmigr) − (Dmigr)control]/(Dmigr)control, percentage of migratory effect relative to the control (EGF 10 ng/ml): +21%; (Dmigr) mean migration distance of the cells (EGF 50 ng/ml): 212 ± 8 μm; [(Dmigr) − (Dmigr)control]/(Dmigr)control, percentage of migratory effect relative to the control (EGF 50 ng/ml): +26%; Effect on migration distance of normal human fibroblasts (in words) (summary statement on Table 1, EGF at 10 and 50 ng/ml, compositions at 5 and 10 μg/ml): increase in the migration distance
